Assay: separate study of diltiazem half-life
Details: in vivo
Source text: The delayed release of the diltiazem causes a delay in the onset of diltiazem build-up in the plasma. Accordingly, onset of the side effects (adverse events) associated with diltiazem therapy have a delayed onset and a patient taking the medication before a rest period should not experience any difficulty in falling asleep.

COc1ccc([C@@H]2Sc3ccccc3N(CCN(C)C)C(=O)[C@@H]2OC(C)=O)cc1 [diltiazem] showed a half-life of about 8.5 h.

From patent US6569456B2, “Osmotic device containing diltiazem and an ACE inhibitor or diuretic” (priority 2000, dated 2003)
